Data taken from PMC8765781, “A platform of assays for the discovery of anti-Zika small-molecules with activity in a 3D-bioprinted outer-blood-retina model” (PLoS ONE, 2022).
Where two headings read alike, the source gives them in different places.

Tested on: wild-type ZIKV (Ugandan MR766 strain) in Vero cells
Assay: ZIKV cytopathic effect (CPE) inhibition qHTS assay, CellTiter-Glo readout
Format: cell-based, Zika virus
[1] = Zika virus, Vero, read-out: Log AC50 (M) (converted)

With CC(/C=C/C=C(\C)C(=O)O[C@@H]1O[C@H](CO[C@@H]2O[C@H](CO)[C@@H](O)[C@H](O)[C@H]2O)[C@@H](O)[C@H](O)[C@H]1O)=C\C=C\C=C(C)\C=C\C=C(/C)C(=O)O[C@@H]1C[C@](O)(C(=O)O)C[C@@H](O)[C@H]1OC(=O)/C=C/c1ccc(O)c(O)c1 [NCGC00384868-01] as the compound, how does the “CC-v2 (curve class classification of the dose response curve)” value (“CC-v2” for short) read?
The value was -3.

What about the Efficacy of the same compound?
Its Efficacy is -78.383.

And the AC50 (Zika virus, Vero)?
The AC50 was 6.93e-06 M.

What about the AC50 [1] of the same compound?
Its AC50 is 6.93e-06 M.

With C[C@@H]1C[C@@H]([C@@H](O)C(C)(C)O)O[C@H]2C[C@@]3(C)C(=C12)C[C@H](O)[C@H]1[C@@]2(C)CCC(=O)C(C)(C)C2CC[C@@]13C (some centres unmarked) [NCGC00384870-01] as the compound, how does the “CC-v2” value read?
Its value is -3.

And the Efficacy?
Its Efficacy is -67.591.

What about the AC50 (Zika virus, Vero) of the same compound?
Its AC50 is 1.59e-05 M.

What about the AC50 [1] of the same compound?
Its AC50 is 1.59e-05 M.

With C=C[C@H]1[C@H](O[C@@H]2O[C@H](CO)[C@@H](O)[C@H](O)[C@H]2O)OC=C(C(=O)OC)[C@H]1CCO [NCGC00384878-01] as the compound, how does the “CC-v2” value read?
Its value is -3.

What about the Efficacy of the same compound?
The Efficacy was -80.569.

What about the AC50 (Zika virus, Vero) of the same compound?
Its AC50 is 2.02e-05 M.

What about the AC50 [1] of the same compound?
The AC50 was 2.02e-05 M.

For CC(=O)OC[C@]12C[C@H](OC(=O)CC(C)C)C(C)=C[C@H]1O[C@@H]1[C@H](O)C[C@@]2(C)[C@]12CO2 [NCGC00385002-01], which Efficacy is on record?
The Efficacy was -46.392.

What about the “Log AC50 (M)” value of the same compound?
The value was -5.6492 M.

And the “Max Resp” value?
Its value is -19.758.

And the AC50 (read-out: AC50)?
The AC50 was 2.24e-06 M.

Which results are given for CC(=O)O[C@H]1CC2C(COC(=O)CC(C)C)=CO[C@@H](OC(=O)CC(C)C)C2[C@]12CO2 (some centres unmarked) [NCGC00385012-01]?
CC-v2 (curve class classification of the dose response curve): -3; Efficacy: -34.82; AC50 (Zika virus, Vero): 3.17e-05 M; AC50 [1]: 3.17e-05 M

Which results are given for C/C=C/c1ccc2oc(-c3ccc(O)c(OC)c3)c(C)c2c1 [NCGC00385078-01]?
CC-v2 (curve class classification of the dose response curve): -3; Efficacy: -53.705; AC50 (Zika virus, Vero): 2.31e-05 M; AC50 [1]: 2.31e-05 M

With CC(=O)OC12C(O)C(C)C3(O)C4C=C(C)C(=O)C4CC(CO)=CC3C1C2(C)C (centres unmarked) [NCGC00385123-01] as the compound, how does the “CC-v2” value read?
Its value is -3.

And the Efficacy?
The Efficacy was -66.621.

What about the AC50 (Zika virus, Vero) of the same compound?
The AC50 was 1.12e-05 M.

What about the AC50 [1] of the same compound?
Its AC50 is 1.12e-05 M.

How did the “CC-v2” value turn out when COC(=O)[C@@]1(C)C(=O)C=C[C@]2(C)c3c(O)cc(C(C)C)cc3[C@H](O)[C@@H](OC(C)=O)C12 (some centres unmarked) [NCGC00385132-01] was run?
Its value is -3.

What about the Efficacy of the same compound?
Its Efficacy is -68.661.

And the AC50 (Zika virus, Vero)?
The AC50 was 1.42e-05 M.

And the AC50 [1]?
Its AC50 is 1.42e-05 M.

How did the “CC-v2” value turn out when CC1CCC2(C(=O)OC3OC(CO)C(O)C(O)C3O)CCC3(C)C(=CCC4C5(C)CCC(O)C(C)(CO)C5CCC43C)C2C1(C)O (centres unmarked) [NCGC00385137-01] was run?
Its value is -3.

What about the Efficacy of the same compound?
The Efficacy was -66.194.

And the AC50 (Zika virus, Vero)?
Its AC50 is 6.11e-06 M.

And the AC50 [1]?
Its AC50 is 6.11e-06 M.

With CC(C)c1c(O)ccc2c1CC[C@H]1C(C)(C)CCC[C@]21C [NCGC00385162-01] as the compound, how does the Curve class read?
Its Curve class is -3.

And the Efficacy?
The Efficacy was -41.688.

What about the AC50 (Zika virus, Vero) of the same compound?
The AC50 was 5.8e-05 M.

And the AC50 (Zika virus, Vero, read-out: Log AC50 (converted))?
Its AC50 is 5.8e-05 M.

And the Emax (Zika virus, Vero, read-out: Max response)?
Its Emax is -36.8%.

Which results are given for C=C(C(=O)O[C@H]1C/C(C)=C/CC/C(CO)=C/[C@H]2OC(=O)C(=C)[C@H]12)C(O)CO (some centres unmarked) [NCGC00385206-01]?
CC-v2 (curve class classification of the dose response curve): -3; Efficacy: -104.223; AC50 (Zika virus, Vero): 4.53e-05 M; AC50 [1]: 4.53e-05 M

Which results are given for COc1ccc(CC2C(=O)NC(C)C(=O)N(C)C3Cc4ccc(cc4)Oc4cc(ccc4OC4OC(CO)C(O)C(O)C4O)CC(C(=O)NC(C)C(=O)NC(CCC(=O)O)C(=O)N2C)N(C)C3=O)cc1 (centres unmarked) [NCGC00385295-01]?
CC-v2 (curve class classification of the dose response curve): -2.2; Efficacy: -76.149; AC50 (Zika virus, Vero): 4.91e-06 M; AC50 [1]: 4.91e-06 M

Which results are given for COc1cc2c(cc1O)C1(Cc3ccc4c(c3C1O)OCO4)[N+](C)([O-])CC2 (centres unmarked) [NCGC00385471-01]?
Efficacy: -50.391; AC50 (Zika virus, Vero): 6.4e-07 M; AC50 [1]: 6.4e-07 M

What does the source list for C=C1C(=O)O[C@H]2CC(=C)[C@H]3CC[C@@](C)(O)[C@@H]3CC12 (some centres unmarked) [NCGC00385616-01]?
CC-v2 (curve class classification of the dose response curve): -3; Efficacy: -31.171; AC50 (Zika virus, Vero): 7.31e-05 M; AC50 [1]: 7.31e-05 M
